Measured values as given in PubChem BioAssay AID1918995 (Molecular Pharmacology Branch, DTP, NCI, 2023).

Tested on: 324938-238-R-J1-PDC complex spheroid growth, % test/control
Test: Anticancer human tumor 324938-238-R-J1-PDC patient-derived bladder carcinoma cell line growth inhibition [AhR]
Conditions: for IC50: curve of first compound; for viability, T/C: stronger effect = lower value
In short: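 Agents were dosed in half-log steps down from roughly clinical Cmax, or from 10 microM where Cmax was unknown, alone and with AhR antagonists. Read-out: percent test/control growth of tumor spheroids containing HUVEC and MSC stromal cells.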

[1] = second compound 0.1 µM, first compound 0.0316 µM
[2] = second compound 0.1 µM, first compound 0.1 µM
[3] = second compound 0.1 µM, first compound 0.316 µM
[4] = second compound 0.1 µM, first compound 1 µM
[5] = second compound 0.1 µM, first compound 3.16 µM
[6] = second compound 0.1 µM, first compound 10 µM
[7] = second compound 0.316 µM, first compound 0.0316 µM
[8] = second compound 0.316 µM, first compound 0.1 µM
[9] = second compound 0.316 µM, first compound 0.316 µM
[10] = second compound 0.316 µM, first compound 1 µM
[11] = second compound 0.316 µM, first compound 3.16 µM
[12] = second compound 0.316 µM, first compound 10 µM
[13] = second compound 1 µM, first compound 0.0316 µM
[14] = second compound 1 µM, first compound 0.1 µM
[15] = second compound 1 µM, first compound 0.316 µM
[16] = second compound 1 µM, first compound 1 µM
[17] = second compound 1 µM, first compound 3.16 µM
[18] = second compound 1 µM, first compound 10 µM
[19] = second compound 3.16 µM, first compound 0.0316 µM
[20] = second compound 3.16 µM, first compound 0.1 µM
[21] = second compound 3.16 µM, first compound 0.316 µM
[22] = second compound 3.16 µM, first compound 1 µM
[23] = second compound 3.16 µM, first compound 3.16 µM
[24] = second compound 3.16 µM, first compound 10 µM
[25] = second compound 10 µM, first compound 0.0316 µM
[26] = second compound 10 µM, first compound 0.1 µM
[27] = second compound 10 µM, first compound 0.316 µM
[28] = second compound 10 µM, first compound 1 µM
[29] = second compound 10 µM, first compound 3.16 µM
[30] = second compound 10 µM, first compound 10 µM
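Also: spheroids exposed to agents for seven days before viability read.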

| IC50 (second compound 0.1 µM) [nM] | IC50 (second compound 0.316 µM) [nM] | IC50 (second compound 1 µM) [nM] | IC50 (second compound 3.16 µM) [nM] | IC50 (second compound 10 µM) [nM] | Structure (SMILES) | viability, T/C [1] [%] | viability, T/C [2] [%] | viability, T/C [3] [%] | viability, T/C [4] [%] | viability, T/C [5] [%] | viability, T/C [6] [%] | viability, T/C [7] [%] | viability, T/C [8] [%] | viability, T/C [9] [%] | viability, T/C [10] [%] | viability, T/C [11] [%] | viability, T/C [12] [%] | viability, T/C [13] [%] | viability, T/C [14] [%] | viability, T/C [15] [%] | other results |
| --- | --- | --- | --- | --- | --- | --- | --- | --- | --- | --- | --- | --- | --- | --- | --- | --- | --- | --- | --- | --- | --- |
| 2180 | 1580 | 2110 | 1760 | 916 | CC1COCCN1c1cc(C2(S(C)(=N)=O)CC2)nc(-c2ccnc3[nH]ccc23)n1 (stereo not given) + CC(CO)NC(=O)c1cc(-c2ccc(Cl)cc2)nn(-c2cnn(C)c2)c1=O | 95.6 | 109 | 89.6 | 69.8 | 41.4 | 19.8 | 103 | 97.5 | 91.5 | 57.2 | 37.3 | 20.6 | 89.4 | 95.9 | 98.1 | viability, T/C [16]: 72%; viability, T/C [17]: 38.6%; viability, T/C [18]: 22.5%; viability, T/C [19]: 81.3%; viability, T/C [20]: 77.9%; viability, T/C [21]: 76.3%; viability, T/C [22]: 65.6%; viability, T/C [23]: 34%; viability, T/C [24]: 16.7%; viability, T/C [25]: 70.3%; viability, T/C [26]: 73.6%; viability, T/C [27]: 68.8%; viability, T/C [28]: 47.3%; viability, T/C [29]: 28.8%; viability, T/C [30]: 20% |
| > 10000 | > 10000 | > 10000 | > 10000 | < 31.6 | Nc1ccn(C2OC(CO)C(O)C2(F)F)c(=O)n1 (stereo not given) + Cc1cncc(-c2nc(NCCc3c[nH]c4ccccc34)c3ncn(C(C)C)c3n2)c1 | 105 | 81.5 | 88.5 | 51.6 | 83.9 | 84.1 | 79.4 | 61.6 | 79.2 | 87.2 | 93.3 | 111 | 95.1 | 65.9 | 79.8 | viability, T/C [16]: 84.1%; viability, T/C [17]: 69.6%; viability, T/C [18]: 84.5%; viability, T/C [19]: 95.2%; viability, T/C [20]: 74.3%; viability, T/C [21]: 119%; viability, T/C [22]: 84.3%; viability, T/C [23]: 120%; viability, T/C [24]: 72.5%; viability, T/C [25]: 45.5%; viability, T/C [26]: 53.7%; viability, T/C [27]: 49.7%; viability, T/C [28]: 49.3%; viability, T/C [29]: 62.2%; viability, T/C [30]: 62.7% |
